Species on record: Rattus norvegicus
Assay: Open TG-GATES - Regimen: Daily Repeat
Assay type: toxicity, organism-based, Sprague-Dawley
Set-up: regimen Daily Repeat, gender Male, age 6 weeks
Conditions: in vivo, iv, route intravenous injection; for Bas / Eos / Fbg / Ht / Lym / MCH / MCHC / MCV / Mono / PT / RBC / Ret / WBC: tissue Blood; for KIDNEY_L / KIDNEY_R / KIDNEY_TOTAL: tissue Kidney; for ALP / AST / CRE / DBIL / GLC / IP / K / Na / PL / RALB / TBIL / TG / TP / gamma-GTP / TC: tissue Plasma
[1] = 0 mg/kg, 72 h, dose level Control, time 3 day
[2] = 0 mg/kg, […], dose level Control, time 7 day
[3] = 0 mg/kg, […], dose level Control, time 14 day
[4] = 0 mg/kg, […], dose level Control, time 28 day
[5] = 1 mg/kg, 72 h, dose level High, time 3 day
[6] = 1 mg/kg, […], dose level High, time 7 day
[7] = 1 mg/kg, […], dose level High, time 14 day
[8] = 1 mg/kg, […], dose level High, time 28 day

`COc1cccc2c1C(=O)c1c(O)c3c(c(O)c1C2=O)C[C@@](O)(C(=O)CO)C[C@@H]3O[C@H]1C[C@H](N)[C@H](O)[C@H](C)O1` [DOXORUBICIN] gave a TERMINAL_BW [1] of 230.2 g, a Bas [1] of 0% and an Eos [1] of 0.8%. For the same molecule, the Fbg [1] was 276.4 mg/dL, the Ht [1] was 37.6% and the Lym [1] was 80%. It also gave an MCH [1] of 21.3 pg, an MCHC [1] of 34.2% and an MCV [1] of 62.3 fL. The Mono [1] was 2.8%, the PT [1] was 16.3 s and the RBC [1] was 603.8 x10_4/ul. It also gave a Ret [1] of 5.8%, a WBC [1] of 107.3 x10_2/uL and a KIDNEY_L [1] of 1 g. It also gave a KIDNEY_R [1] of 1 g, a KIDNEY_TOTAL [1] of 2 g and an ALP [1] of 1504.4 IU/L. For the same molecule, the AST [1] was 70.6 IU/L, the CRE [1] was 0.2 mg/dL and the DBIL [1] was 0.002 mg/dL. The GLC [1] was 193.8 mg/dL, the IP [1] was 6.9 mg/dL and the K [1] was 4.8 meq/L. It also gave a Na [1] of 141 meq/L, a PL [1] of 141 mg/dL and an RALB [1] of 3 g/dL. The TBIL [1] was 0.006 mg/dL, the TG [1] was 86.6 mg/dL and the TP [1] was 5.4 g/dL. For the same molecule, the gamma-GTP [1] was 1.4 IU/L, the TERMINAL_BW [2] was 251.1 g and the TERMINAL_BW [3] was 307.3 g. The TERMINAL_BW [4] was 382.5 g, the Bas [2] was 0% and the Eos [2] was 0.6%. The Fbg [2] was 285.8 mg/dL, the Ht [2] was 38.4% and the Lym [2] was 77.4%. It also gave an MCH [2] of 20.8 pg, an MCHC [2] of 35.3% and an MCV [2] of 58.9 fL. The Mono [2] was 2.8%, the PT [2] was 16.5 s and the RBC [2] was 652.8 x10_4/ul. For the same molecule, the Ret [2] was 5.5%, the WBC [2] was 121 x10_2/uL and the Bas [3] was 0%. The Eos [3] was 0.8%, the Fbg [3] was 305.6 mg/dL and the Ht [3] was 39.4%. The Lym [3] was 82.2%, the MCH [3] was 20.5 pg and the MCHC [3] was 35.8%. It also gave an MCV [3] of 57 fL, a Mono [3] of 2.2% and a PT [3] of 16.1 s. For the same molecule, the RBC [3] was 691.8 x10_4/ul, the Ret [3] was 4.8% and the WBC [3] was 124.7 x10_2/uL. For the same molecule, the Bas [4] was 0%, the Eos [4] was 1.4% and the Fbg [4] was 305.6 mg/dL. The Ht [4] was 42.7%, the Lym [4] was 85.6% and the MCH [4] was 19.6 pg. For the same molecule, the MCHC [4] was 36.3%, the MCV [4] was 54 fL and the Mono [4] was 2%. The PT [4] was 16.4 s, the RBC [4] was 792.2 x10_4/ul and the Ret [4] was 2.9%. The WBC [4] was 144.2 x10_2/uL, the KIDNEY_L [2] was 1.1 g and the KIDNEY_R [2] was 1.1 g. For the same molecule, the KIDNEY_TOTAL [2] was 2.2 g, the KIDNEY_L [3] was 1.2 g and the KIDNEY_R [3] was 1.2 g. For the same molecule, the KIDNEY_TOTAL [3] was 2.3 g, the KIDNEY_L [4] was 1.4 g and the KIDNEY_R [4] was 1.4 g. It also gave a KIDNEY_TOTAL [4] of 2.7 g, an ALP [2] of 1305.8 IU/L and an AST [2] of 67 IU/L. It also gave a CRE [2] of 0.2 mg/dL, a DBIL [2] of 0 mg/dL and a GLC [2] of 188.2 mg/dL. For the same molecule, the IP [2] was 7.2 mg/dL, the K [2] was 4.5 meq/L and the Na [2] was 142.2 meq/L. It also gave an RALB [2] of 2.9 g/dL, a TBIL [2] of 0.014 mg/dL and a TC [2] of 74.4 mg/dL. It also gave a TG [2] of 100.2 mg/dL, a TP [2] of 5.3 g/dL and a gamma-GTP [2] of 1.2 IU/L. For the same molecule, the ALP [3] was 1239.2 IU/L, the AST [3] was 59.2 IU/L and the CRE [3] was 0.2 mg/dL. It also gave a DBIL [3] of 0 mg/dL, a GLC [3] of 203 mg/dL and an IP [3] of 6.9 mg/dL. For the same molecule, the K [3] was 4.4 meq/L, the Na [3] was 140.8 meq/L and the RALB [3] was 3.1 g/dL. For the same molecule, the TBIL [3] was 0.018 mg/dL, the TC [3] was 69 mg/dL and the TG [3] was 129.2 mg/dL. The TP [3] was 5.7 g/dL, the gamma-GTP [3] was 2.6 IU/L and the ALP [4] was 795.8 IU/L. It also gave an AST [4] of 64.8 IU/L, a CRE [4] of 0.3 mg/dL and a DBIL [4] of 0 mg/dL. It also gave a GLC [4] of 186.6 mg/dL, an IP [4] of 6.7 mg/dL and a K [4] of 4.1 meq/L. The Na [4] was 140.6 meq/L, the PL [4] was 130.8 mg/dL and the RALB [4] was 3.1 g/dL. For the same molecule, the TBIL [4] was 0.006 mg/dL, the TC [4] was 65 mg/dL and the TG [4] was 96.2 mg/dL. For the same molecule, the TP [4] was 6.1 g/dL, the gamma-GTP [4] was 1 IU/L and the TERMINAL_BW [5] was 213.7 g. The Bas [5] was 0%, the Eos [5] was 1% and the Fbg [5] was 293 mg/dL. The Ht [5] was 37.6%, the Lym [5] was 83.6% and the MCH [5] was 21.4 pg. It also gave an MCHC [5] of 35%, an MCV [5] of 61.1 fL and a Mono [5] of 2.4%. It also gave a PT [5] of 16.3 s, an RBC [5] of 616 x10_4/ul and a Ret [5] of 1%. For the same molecule, the WBC [5] was 40.5 x10_2/uL, the KIDNEY_L [5] was 0.9 g and the KIDNEY_R [5] was 0.9 g. It also gave a KIDNEY_TOTAL [5] of 1.8 g, an ALP [5] of 1562.4 IU/L and an AST [5] of 64.4 IU/L. For the same molecule, the CRE [5] was 0.2 mg/dL, the DBIL [5] was 0 mg/dL and the GLC [5] was 194.4 mg/dL. It also gave an IP [5] of 7 mg/dL, a K [5] of 4.3 meq/L and a Na [5] of 141.4 meq/L. For the same molecule, the RALB [5] was 3.1 g/dL, the TBIL [5] was 0.014 mg/dL and the TC [5] was 79 mg/dL. It also gave a TG [5] of 78.2 mg/dL, a TP [5] of 5.6 g/dL and a gamma-GTP [5] of 1.4 IU/L. The TERMINAL_BW [6] was 236 g, the TERMINAL_BW [7] was 244.4 g and the TERMINAL_BW [8] was 221.9 g. For the same molecule, the Bas [6] was 0%, the Eos [6] was 1.4% and the Fbg [6] was 307.2 mg/dL. For the same molecule, the Ht [6] was 34.1%, the Lym [6] was 84.2% and the MCH [6] was 20.5 pg. It also gave an MCHC [6] of 36.1%, an MCV [6] of 56.8 fL and a Mono [6] of 2.4%. For the same molecule, the PT [6] was 16.1 s, the RBC [6] was 600.6 x10_4/ul and the Ret [6] was 0.06%. The WBC [6] was 32.9 x10_2/uL, the Bas [7] was 0% and the Eos [7] was 0.4%. The Fbg [7] was 315.6 mg/dL, the Ht [7] was 31.5% and the Lym [7] was 76.8%. The MCH [7] was 20.6 pg, the MCHC [7] was 37.1% and the MCV [7] was 55.7 fL. The Mono [7] was 1%, the RBC [7] was 566.8 x10_4/ul and the Ret [7] was 0.04%. It also gave a WBC [7] of 14.2 x10_2/uL, a Bas [8] of 0% and an Eos [8] of 0.5%. The Fbg [8] was 669 mg/dL, the Lym [8] was 31.5% and the MCH [8] was 18.1 pg. It also gave an MCHC [8] of 38%, an MCV [8] of 47.6 fL and a Mono [8] of 8%. The PT [8] was 15.1 s, the RBC [8] was 301.5 x10_4/ul and the Ret [8] was 0.2%. The WBC [8] was 44.9 x10_2/uL, the KIDNEY_L [6] was 1 g and the KIDNEY_R [6] was 1 g. The KIDNEY_TOTAL [6] was 2 g, the KIDNEY_L [7] was 1 g and the KIDNEY_R [7] was 1 g. The KIDNEY_TOTAL [7] was 2 g, the KIDNEY_L [8] was 1.4 g and the KIDNEY_R [8] was 1.4 g. The KIDNEY_TOTAL [8] was 2.8 g, the ALP [6] was 963 IU/L and the AST [6] was 66.6 IU/L. The CRE [6] was 0.2 mg/dL, the DBIL [6] was 0 mg/dL and the GLC [6] was 199.6 mg/dL. It also gave an IP [6] of 7.3 mg/dL, a K [6] of 4.5 meq/L and a Na [6] of 142.8 meq/L. For the same molecule, the PL [6] was 170.4 mg/dL, the RALB [6] was 3 g/dL and the TBIL [6] was 0.018 mg/dL. For the same molecule, the TC [6] was 88.8 mg/dL, the TG [6] was 110.2 mg/dL and the TP [6] was 5.6 g/dL. It also gave a gamma-GTP [6] of 1.6 IU/L, an ALP [7] of 635.6 IU/L and an AST [7] of 56.4 IU/L. It also gave a CRE [7] of 0.2 mg/dL, a DBIL [7] of 0.002 mg/dL and a GLC [7] of 200.8 mg/dL. It also gave a K [7] of 4.1 meq/L, a Na [7] of 142 meq/L and an RALB [7] of 2.9 g/dL. The TBIL [7] was 0.032 mg/dL, the TC [7] was 90.8 mg/dL and the TG [7] was 110.4 mg/dL. The TP [7] was 5.4 g/dL, the gamma-GTP [7] was 1.4 IU/L and the ALP [8] was 339 IU/L. It also gave an AST [8] of 39.5 IU/L, a CRE [8] of 0.2 mg/dL and a DBIL [8] of 0 mg/dL. For the same molecule, the GLC [8] was 197 mg/dL, the IP [8] was 5.6 mg/dL and the K [8] was 3.9 meq/L. It also gave a Na [8] of 141.5 meq/L, a PL [8] of 357.5 mg/dL and an RALB [8] of 1.6 g/dL. It also gave a TBIL [8] of 0 mg/dL, a TC [8] of 233 mg/dL and a TG [8] of 309 mg/dL. For the same molecule, the TP [8] was 4.5 g/dL and the gamma-GTP [8] was 14.5 IU/L.
